The source of these data is patent US6924311B2, “Methods for affecting various diseases utilizing LXR compounds” (X-Ceptor Therapeutics, Inc., priority 2001, dated 2005).

One assay deals with T1, LXRα (Homo sapiens, UniProt Q13133).
T1 sequence (Q13133 1-447): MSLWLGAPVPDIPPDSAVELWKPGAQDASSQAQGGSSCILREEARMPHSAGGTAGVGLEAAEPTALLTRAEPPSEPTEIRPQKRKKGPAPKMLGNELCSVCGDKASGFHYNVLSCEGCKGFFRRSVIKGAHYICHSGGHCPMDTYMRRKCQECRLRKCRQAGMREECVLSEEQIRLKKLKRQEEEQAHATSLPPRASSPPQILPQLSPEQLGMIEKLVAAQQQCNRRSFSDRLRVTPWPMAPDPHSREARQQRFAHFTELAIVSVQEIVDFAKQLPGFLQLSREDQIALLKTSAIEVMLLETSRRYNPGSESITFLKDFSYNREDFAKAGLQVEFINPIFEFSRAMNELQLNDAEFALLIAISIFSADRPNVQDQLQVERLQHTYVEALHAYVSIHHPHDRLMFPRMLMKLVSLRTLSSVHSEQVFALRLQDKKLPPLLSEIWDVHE
The conditions noted are these: stated as considered, no test described; cited from earlier work.

A short description of assay [1]: Plasma glucose levels in db/db mice. The class given is in vivo. The conditions noted are these: 50 mg/kg daily oral gavage, 14 days. An excerpt:
Cardiovascular disease is one of the major complications of type II diabetes. […] A mouse model of type II diabetes is the diabetic (db/db) mouse. [See Coleman, D. L. (1978), Obese and Diabetes: Two Mutant Genes Causing Diabetes-Obesity Syndrom In Mice. Diabetologia 14, 141-148; and Hong Chen, Olga […], Louis […], Elizabeth A. Woolf, Xun Weng, Stephen J. Ellis, […], Janice Culpepper, Karen J. More, Roger E. Breitbart, Geoffrey M. Duyk, Robert I. and Jay P. Morgenstern (1996), Evidence That The Diabetes Gene Encodes The Leptin Receptor: Identification Of A Mutation In The Leptin Receptor In db/db Mice, Cell 84, 491-495.] […] To examine the ability of LXR agonists to modulate blood glucose levels, db/db mice were treated for 14 days with 50 mg compound/kg body weight of the LXR agonist Compound 1. As a positive control animals were also treated with 30 mg compound/kg body weight of the retinoid X receptor (RXR) agonist. […] Both compounds were administered by daily oral gavage in a sesame oil/ethanol vehicle via a 1-cc syringe fitted with a 20G disposable feeding needle. […] Plasma glucose levels were determined using a colorimetric enzymatic assay adapted to a 96 well plate format (Sigma, St. Louis, Mo.). […] The absorbance of the samples and standards were read using a Multiskan plate reader.

Assay [2] in a line: Plasma HDL cholesterol levels in wildtype and LXR knockout mice. Format: in vivo. The conditions noted are these: 10 mg/kg daily oral, day 7. The method, then:
To determine the individual contribution of LXRα and LXRβ to increases in HDL cholesterol levels, Compound 1 (10 mg/kg) was administered for seven days by daily oral gavage in a sesame oil/ethanol vehicle via a 1 cc syringe fitted with a 20G disposable feeding needle. Compound was solvated in ethanol (5% final volume) and brought up to final volume with sesame oil (Sigma, St. Louis, Mo.). On day 7 mice were anesthetized with isofluorane and blood samples were obtained by retro-orbital plexus puncture. Blood samples were collected in heparinized tubes, centrifuged to obtain plasma and stored at -20° C. HDL levels were determined by precipitating non-HDL cholesterol from plasma samples using a precipitating reagent (Wako Diagnostic 278-67409, Richmond, Va.). The remaining HDL cholesterol was than quantitated using a colorimetric enzymatic assay adapted to a 96 well plate format (Infinity Total Cholesterol Reagent, Sigma, St. Louis, Mo.). […] (23%) strains and unchanged when LXRβ is eliminated. […] Thus either LXRα or LXRβ alone is competent to elevate HDL cholesterol in response to agonist treatment (FIG. 5). The lack of selectivity in HDL regulation contrasts the selective decrease in triglyceride levels observed only when LXRα is eliminated (LXRα-/-, LXRαβ-/-; FIGS. 1 and 2).

The nature of assay [3]: Dietary cholesterol absorption, fecal extraction method. The class given is in vivo, mice. Particulars: 50 mg/kg daily oral, 7 days. The method, then: Induction of cholesterol efflux pumps such as ABCA1 in the intestine limits the absorption of dietary cholesterol by stimulating the efflux of cholesterol out of intestinal enterocytes and into the intestinal lumen where it is excreted. To examine the effect of LXR pan-agonists on dietary cholesterol absorption, mixed wildtype and LXRαβ−/− mice were treated with vehicle or Compound 1 (50 mg/kg) for seven days prior to the initiation of the cholesterol absorption protocol. Compound 1 was administered by daily oral gavage in a 1% carboxy methyl-cellulose/ethanol vehicle via a 1-cc syringe fitted with a 20G disposable feeding needle. Compound was solvated in ethanol (5% final volume) and brought up to final volume with 1% carboxy methylcellulose. On day seven of the study, animals received a single oral bolus dose of 0.67 μCi [4-^14C]cholesterol (New England Nuclear, Boston, Mass.) and 1.3 μCi [5,6-^3H]sitostanol (ARC, St. Louis Mo.) by gavage in MCT oil (Mead Johnson, Evansville, Ind.). […] Extracted samples were counted on a scintillation counter and then analyzed based upon the following equation. [((^14C/^3H) dosing mixture)−(^14C/^3H) fecal samples)]/((^14C/^3H) dosing mixture). […] This agonist-dependent effect is lost in LXRαβ−/− mice indicating a requirement for LXR activity in mediating this activity.

With `O=S(=O)(c1ccccc1)N(CC(F)(F)F)c1ccc(C(O)(C(F)(F)F)C(F)(F)F)cc1` [Compound 1, N-(2,2,2-trifluoroethyl)-N-[4-(2,2,2-trifluoro-1-hydroxy-1-trifluoromethylethyl)-phenyl]-benzene sulfonamide], the “binding and activation of LXRα” value at LXRα was “binds and activates both LXRα and LXRβ with similar potency and efficacy”. Moreover, the “effect on plasma glucose (hyperglycemia)” value in assay [1] is given as “significantly reduces hyperglycemia in db/db mice”. The entries for the “agonist-dependent increase in HDL” value in assay [2] (LXRαβ−/− mice) and in assay [2] (LXRβ−/− mice) were “completely lost” and “unchanged”, respectively. Moreover, the “reduction of agonist-dependent increase in HDL” value in assay [2] (LXRα−/− A129 mice versus wildtype) is on record as 23%; in assay [2] (LXRα−/− C57BL/6 mice versus wildtype) it was 8%. Besides, the “effect on HDL levels” value in assay [2] (wildtype mice) is reported as “significant increase in HDL levels”. In addition, the “effect on cholesterol absorption” value is reported as “lost” in assay [3] (LXRαβ−/− mice) and “significant decrease in cholesterol absorption” in assay [3] (mixed wildtype mice).
